Data reported in the NIST ThermoML archive (doi:10.1021/acs.jced.6b00327).

Test: xn = mol fraction of the nth substance listed
Conditions: Liquid, Buoyancy - hydrostatic balance with magnetic suspension - one sinker

F/C=C/C(F)(F)F [trans-1,3,3,3-tetrafluoropropene] + CCC
Conditions	mass density [kg/m3]
253.14 K, x1 = 0.4965	913.53
253.3 K, x1 = 0.1746	680.21
253.44 K, x1 = 0.8803	1197.23
253.45 K, x1 = 0.7006	1067.62
256.11 K, x1 = 0.1746	676.35
258.14 K, x1 = 0.7006	1056.03
258.17 K, x1 = 0.4965	903.57
258.2 K, x1 = 0.8803	1186.23
261.14 K, x1 = 0.1746	670.01
263.15 K, x1 = 0.7006	1043.42
263.16 K, x1 = 0.4965	892.67
263.17 K, x1 = 0.8803	1175.37
265.18 K, x1 = 0.1746	662.22
268.17 K, x1 = 0.7006	1030.6
268.19 K, x1 = 0.4965	884.02
268.2 K, x1 = 0.8803	1162.41
269.18 K, x1 = 0.1746	655.74
273.18 K, x1 = 0.7006	1017.6
273.18 K, x1 = 0.8803	1149.12
273.2 K, x1 = 0.1746	648.23
273.2 K, x1 = 0.4965	873.27
278.19 K, x1 = 0.8803	1135.29
278.2 K, x1 = 0.1746	640.01
278.2 K, x1 = 0.7006	1004.24
278.24 K, x1 = 0.4965	862
283.18 K, x1 = 0.1746	630.77
283.19 K, x1 = 0.4965	851.76
283.19 K, x1 = 0.8803	1121.17
283.2 K, x1 = 0.7006	991.21
288.21 K, x1 = 0.8803	1106.57
288.22 K, x1 = 0.7006	977.85
288.25 K, x1 = 0.4965	842.07
293.28 K, x1 = 0.4965	831.58
293.28 K, x1 = 0.7006	963.78
293.28 K, x1 = 0.8803	1091.31
